According to patent US6458838B1, “Adrenoleukodystrophy treatments” (Johns Hopkins University, priority 1999, dated 2002):
“Also recorded” adds a separate entry of the source.

How the values were obtained:
ALDR mRNA = assay: Semi-quantitative RT-PCR in primary fibroblasts; format: cell-based; conditions: 5 mM 4-PBA for 2 days
Description: (§1) Semi-quantitative RT-PCR was done on the mRNA isolated from these cells (FIG. 1). […] In addition, the expression of acyl-CoA oxidase (AOX), the rate-limiting enzyme in VLCFA β-oxidation, was not affected. Although previous studies have reported that ALDR mRNA was not detectable in fibroblasts by either northern or RT-PCR analyses, those RT-PCR studies used about 66 ng of CDNA; we used about 250 ng of cDNA.
(§2) Semi-quantitative RT-PCR analysis. Total RNA from tissue culture cells (10^6-10^7 cells/sample) was isolated using TRizol Reagent™ (Life Technologies), treated with DNase I (100-200 units in 40 mM HCI, 10 mM NaCl, 6 mM MgCl2, pH 7.3), incubated at 37° C. for 30 min, extracted with phenol/chloroform, and precipitated with isopropanol. cDNA was generated using MMLV reverse transcriptase (RT) (Life Technologies). PCR was done in the linear range of amplification (determined for each primerpair-cDNA combination). For each cDNA sample, a ‘cocktail’ was prepared, containing PCR buffer (Promega), 200 µM of each DNTP, 1.5 mM MgCl2, 250 ng cDNA, 0.25 U of Taq polymerase (Promega) and […]. The ‘cocktail’ was divided into separate tubes containing cDNA specific primers.
Primers. The PCR primers used are listed below. In the parentheses, h indicates human and m, mouse; this is followed by the gene name, product size and annealing temperature. […]

acyl-CoA oxidase (AOX) = assay: Semi-quantitative RT-PCR in primary fibroblasts; format: cell-based; conditions: 5 mM 4-PBA
Description: as §1
In rodents PPARα expression is increased by peroxisomal proliferators. […] Thus, although the peroxisome proliferation response in mice may be, at least in part, through the documented PPARα pathway, the response in human cells seems to be through a newly discovered pathway that may involve Pex11α. […] This again indicates a newly discovered pathway for 4-PBA-induced peroxisome proliferation in humans and perhaps in rodents. AOX has been identified as the rate-limiting step in VLCFA β-oxidation.
as §2
Primers. The PCR primers used are listed below. In the parentheses, h indicates human and m, mouse; this is followed by the gene name, product size and annealing temperature. For primer sequences, F is forward and R is reverse. […]

[1] = test system: patients with urea cycle disorders; conditions: used for many years; cited from earlier work

SMILES: O=C(O)CCCc1ccccc1 [4-PBA, 4-Phenyl butyrate]
- ALDR mRNA levels (ALDR mRNA; normal and X-ALD human primary fibroblasts): substantial increase
- ALDR mRNA levels (ALDR mRNA; normal and X-ALD mouse primary fibroblasts): substantial increase
- AOX expression (acyl-CoA oxidase (AOX); human fibroblasts, 2 days): not affected; also recorded: unchanged
- AOX expression (acyl-CoA oxidase (AOX); human fibroblasts, 10 days): remained unchanged
- AOX expression (acyl-CoA oxidase (AOX); mouse fibroblasts, 2 days): not affected; also recorded: unchanged
- side effects [1]: few, if any, side effects
